Laboratory results from a melting point compilation (Tetko et al.; mined from patent text by program, amines drawn as free bases though some values may be those of a salt).

Row | Structure (SMILES) | melting point [°C]
1 | NS(=O)(=O)c1cc2c(Cl)c(O)ccc2s1 | 198 to 201
2 | CC(C)(C)OC(=O)Nc1cc(Cl)c(I)cc1[N+](=O)[O-] | 82 to 84
3 | CC(C)CCCC(C)C1CCC2C3CC=C4CC(O)CC(O)C4(C)C3CCC12C (stereo not drawn) | 158 to 161
4 | C=CCCCCCCCCC(=O)N1CCN(c2cc(N3CCCC3)nc(N3CCCC3)n2)CC1 | 93 to 96
5 | CCOc1c(C)c(N2CCN(c3ccc(C)cc3)CC2)c(C)c2c1OC(C)C2 (stereo not drawn) | 96 to 98
6 | CSc1sc(C(N)=O)c2c1-c1[nH]c(-c3ccccc3)nc1CC2 | 206 to 207
7 | CNC(=O)Nc1snc(N2CCCC2)c1C#N | 239
8 | COc1ccc(CCN(C)C)c2[nH]c(=O)[nH]c12 | 197 to 199
9 | CCc1cc(Oc2ccc(S(C)(=O)=O)nc2)cc2cc(C3=NCC(CC(=O)O)S3)[nH]c12 (stereo not drawn) | 230 to 232
10 | CCSC1OC(CO)C(OC2OC(CO)C(O)C(O)C2O)C(O)C1O (stereo not drawn) | 191 to 192
11 | Cc1cnc2c(c1)CCCC2O (stereo not drawn) | 58
12 | COc1ncc(C)cc1Nc1cc(C#N)c2c(c1)[C@@H]1CNCC[C@@H]1N2C | 76 to 80
13 | CC(CC(=O)c1cccc(C(F)(F)F)c1)C(=O)O (stereo not drawn) | 90 to 91
14 | CS(=O)(=O)NC(=O)CCCCBr | 88 to 89
15 | N#Cc1cc(CC(=O)O)cc2c1NC(C(F)(F)F)CC2 (stereo not drawn) | 148 to 149
16 | C=CC(=O)NC(CCC(=O)O)C(=O)O (stereo not drawn) | 125 to 127
17 | Cc1[nH]n(C2CCCC2)c2nc(C3CCN(C(=O)C(F)(F)F)CC3)nc(=O)c1-2 | 219 to 221
18 | O=C1CCCC(=NNc2ccccc2)C1 | 187 to 189
19 | Cc1ccc(CSc2nc3cc4c(cc3[nH]2)C(C)(C)CCC4(C)C)nc1 | 187 to 188
20 | COC(=O)Cc1c(O)nc(C)nc1O | > 200

Row | Structure (SMILES) | melting point [°C]
21 | CC(=O)NC(CC(C)C)C(=O)N1CC1C#N (racemic) | 112 to 116
22 | CON1C(=O)CC2(CCN(C(=O)CCN3C=CCC(C(N)=O)=C3)CC2)C1=O | 64 to 80
23 | CN1CCC(O)(Cc2ccccc2F)CC1 | 93 to 95
24 | O=C(O)COc1ccc([N+](=O)[O-])c(C(F)(F)F)c1 | 92 to 95
25 | O=C1CSC(=S)N1N=c1sc2ccc(Cl)cc2s1 | 312 to 314
26 | CCC(O)c1cc(C)nc(Oc2c(C)cc(C)cc2C)c1C (stereo not drawn) | 119 to 120
27 | CC(C)Nc1nc(NN)nc(Cl)c1-c1c(F)cc(F)cc1F | 143 to 150
28 | CC(=CC(=O)c1ccccc1)NC(Cc1ccc(-c2cccc(CNCC(=O)c3ccccc3)c2)cc1)C(=O)O (stereo not drawn) | 136
29 | N#CCN1C(=O)N(c2ccc(C#N)c(C(F)(F)F)c2)C(=O)C12CCOCC2 | 210 to 211
30 | COC(=O)C1N=c2c(ccc3c2=CC=N3)O1 (stereo not drawn) | 207 to 208
31 | Cc1cc(C(N)=S)c2c(c1C)C(=O)CC2 | 207 to 208
32 | CCCCc1c(NCCCO)cnn(C(C)(C)C)c1=O | 106 to 108
33 | COCOc1cc2c(cc1-c1cc(C=CC(=O)O)ccc1O)C(C)(C)CCC2(C)C | 101 to 103
34 | COc1cc(CSCCC(=O)SCc2cc(OC)c(OC)c(OC)c2)cc(OC)c1OC | 88 to 89
35 | COc1cc(Br)c(Br)cc1N1CCN(CCCNc2c(C)c(=O)n(C)c(=O)n2C)CC1 | 153 to 155
36 | CCC(O)c1ccc(Cl)c2nc3n(c12)CCCN3c1c(Br)cc(OC)cc1Br (stereo not drawn) | 138 to 140
37 | COc1ccc2c(c1)N(C(C)=O)CCO2 | 76 to 77
38 | Cc1ccc(N2C(=O)NC(=O)C23CCN(C)CC3)cc1 | 172 to 174
39 | CCc1c(N)c(C(N)=O)nn1CCN1CCOCC1 | 152 to 153
40 | COC(=O)CCCC(=O)c1ccc(CCNC(C)=O)cc1 | 107 to 108

More lines, now with the values ahead:

Row | melting point [°C] | Structure (SMILES)
41 | 95 to 100 | CC(=O)OCc1c(CNC(=O)c2ccc(C(=O)O)cc2)ccc2c1C(C)(C)CCC2(C)C
42 | 105 to 107 | COCCOc1cc(NC(=O)OC(C)(C)C)c(N)cc1C#Cc1ccccc1
43 | 128 to 130 | COCCn1nc2ccccc2c1C(=O)NCC1CCN(CCc2ccccc2F)CC1
44 | 186 to 187 | O=C(CBr)c1csc(-c2ccc([N+](=O)[O-])cc2)n1
45 | 198 to 200 | Cc1ccnc2c1N=C(n1ccnc1)c1cccnc1N2C1CC1
46 | 144 to 145 | Cn1c(C(F)(F)F)ccc(-c2cc(S(C)(=O)=O)c(Cl)cc2F)c1=O
47 | 116 | N#Cc1cccc(C=C2c3ccccc3CCc3ccccc32)c1
48 | 85 to 87 | CCOC(=O)Cc1cc(Br)c(C(=O)c2ccc(C)cc2)n1C
49 | 104 to 106 | Nc1ccc2c(c1)N(C1CCN(CCc3ccc(F)cc3)CC1)CC2
50 | 125 to 127 | N#CC=CNCC(=O)c1cccc(Cl)c1Cl
51 | 116 to 120 | CN(C)C(=O)C=Cc1c(C#N)cnn1-c1ncc(C(F)(F)F)cc1Cl
52 | 201 | Cc1ccc(C2=NC(O)(C(F)(F)F)CN2c2ccc(S(C)(=O)=O)cc2)cc1Cl (stereo not drawn)
53 | 194 to 195 | CS(=O)(=O)N1CCN(S(=O)(=O)c2ccc(-c3cccs3)cc2)[C@@H](C(=O)NOC2CCCCO2)C1 (stereo partly drawn)
54 | 191 to 194 | CC(=Cc1ccc(Oc2cccnc2)cc1)C(=O)O
55 | 213 to 215 | CC(C)(C)OC(=O)N1CCN(S(=O)(=O)c2ccc(S(=O)(=O)c3ccc4cc(Br)ccc4c3)cc2)CC1
56 | 155 to 157 | COCc1c(C(=O)OC(C)C)ncc2c1c1c(OCc3ccccc3)cccc1n2CC(=O)N(C)Cc1ccccc1
57 | 125 to 127 | Nc1nc(SCC2CC2)c2ncn(C3C=CC(CO)C3)c2n1 (stereo not drawn)
58 | 178 to 180 | CC(C)(C)C(NC(=O)c1ccc(Cl)cc1)NC(=NC#N)NCc1cccc(Cl)c1 (stereo not drawn)
59 | 170 to 171 | COc1cccc(CC2(c3ccc4[nH]ccc4c3)CCNC2)c1 (stereo not drawn)
60 | 163 | CCN(c1cccc2cc(C(N)=S)[nH]c12)S(=O)(=O)c1cccs1

Row | melting point [°C] | Structure (SMILES)
61 | 253 | Cc1ccc2c(c1)C=Cc1cc(C)ccc1C2c1cn(Cc2ccc(C(=O)Nc3nc(CC(=O)Nc4nc(CC(=O)O)cs4)cs3)o2)c(=O)[nH]c1=S
62 | 184 to 185 | CC(C)n1nc(-c2c(-c3ccccc3)nn3ccc(C(=O)NC4CC4)cc23)ccc1=O
63 | 197 to 200 | CCOC(=O)c1nc(NC)sc1-c1cn2ccccc2n1
64 | 109 to 110 | CC(C)NCc1cccc(Cn2ccc(OCc3ccc(F)cc3F)c(Br)c2=O)c1
65 | 73 to 74 | COC(=O)CCC(=NOCc1ccc(OCCc2nc(-c3ccccc3)oc2C)cc1)c1ccccc1
66 | 251 | O=C(NN1CCCCC1)c1ccc(N2CCN(C(=O)N3CCC(c4cn[nH]c4)C3)c3ccccc32)cc1 (stereo not drawn)
67 | > 340 | Nc1ncc2cc(-c3ccncc3)c(N)nc2n1
68 | 145 to 148 | O=C(CCCCCl)Nc1nnc(SCc2ccccc2)s1
69 | 54 to 56 | CCCNC(=O)C1(CCCCCSc2nc3ccc(OCC)cc3s2)c2ccccc2-c2ccccc21
70 | 217 to 219 | Oc1cccc(Nc2nnc(Cc3ccncc3)c3ccccc23)c1
71 | 120 to 128 | CC(=O)OC(C(=O)N1C(Cc2ccccc2)COC1(C)C)c1ccc(-c2ccc(-c3ccccc3)cc2)o1 (stereo not drawn)
72 | 272 to 274 | CCOC(=O)C1CCN(C(=O)c2[nH]c(C)c(-c3nc4ccc(C(=O)c5ccccc5)cc4[nH]3)c2C)CC1
73 | 70 | CNc1ccc(Cl)nc1
74 | 208 | COc1ccc(N2CCN(c3ccc(-n4cnn(CC(F)(F)F)c4=O)cc3)CC2)cc1
75 | 123 to 124 | CCN(CC)CCCNc1nc2ccccc2n(-c2ccc(Cl)cc2)c1=O
76 | 80 to 81 | CC(=O)OCCCC(=C(c1ccccc1)c1ccccc1)c1ccccc1
77 | 168 to 169 | CC(C)(C)[Si](C)(C)Oc1ccccc1-c1cc(-c2ccc([N+](=O)[O-])cc2)c(C#N)c(NC(=O)c2cccs2)n1
78 | 193 | Cc1cc(-n2ccnc2)c2cccc(OCc3c(Cl)ccc(S(=O)(=O)N4CCCC4)c3Cl)c2n1
79 | 112 to 114 | N#CC(Cc1ccco1)(Cn1cncn1)c1ccc(Cl)cc1 (stereo not drawn)
80 | 72 to 73 | CC1(C)c2ccccc2Oc2ncccc21

Row | melting point [°C] | Structure (SMILES)
81 | 170 | CCCCn1ccc(-c2ccc(Oc3cc(C)nc(C)c3)cc2F)c(C#N)c1=O
82 | > 350 | O=C1Oc2ccc(Cl)cc2C2=c3ccccc3=NCC12 (stereo not drawn)
83 | 238 to 240 | CNc1c(-c2cc(Cl)ccc2O)c2cc(C(F)(F)F)ccc2[nH]c1=O
84 | 180 to 181 | COCC(C)n1nc(-c2cnc(N)nc2-c2ccccc2)ccc1=O (stereo not drawn)
85 | 213 to 215 | COC(=O)CCc1ccc(-n2ncn(-c3ccc(C#N)cc3)c2=O)cc1
86 | 185 to 189 | O=C(CN1CCC(Cc2ccccc2)CC1)Nc1ccc2[nH]cnc2c1
87 | 147 to 148 | COc1ccc(-c2ccc(-c3ccccc3Cl)n2Cc2cccc(N)n2)cc1
88 | 159 to 161 | CC(C)(C)c1ccc(-c2nc3ccc([N+](=O)[O-])cc3c(=O)o2)cc1
89 | 111 | O=S1(=O)c2cccc3cccc(c23)N1CCCN1CCC(c2ccc(Cl)cc2)CC1
90 | 140 to 142 | CCNC(=O)c1c(Cl)cccc1[Si](C)(C)C(C)(C)C
91 | 124 to 126 | CCOC(=O)c1cnc2c(cnn2-c2ccccc2)c1N(Cc1ccccc1)S(=O)(=O)c1ccc(OC)cc1
92 | 157 to 159 | C=CC[C@@H]1C[C@@H](COc2ccc(-c3ccc(C#N)cc3)cc2)N(CCCC2CCCCC2)C1=O
93 | 142 to 144 | O=C(Oc1ccc(Cl)cc1Cn1nc(-c2ccc(C(F)(F)F)cc2)oc1=O)c1ccc(CCl)cc1
94 | 63 to 65 | FC(F)(F)c1c[nH]cc1-c1cccc(Cl)c1Cl
95 | 115 to 119 | Cc1cccc(-c2[nH]c(C(C)C)nc2-c2cccc(-c3ccc4c(c3)C(=O)CCS4(=O)=O)c2)n1
96 | 174 to 175 | COc1ccccc1NC(=O)CN1CCN(c2ncccc2C#N)CC1
97 | 108 to 111 | CC(C)Cc1cccc(CCCn2c(=O)c3c(Cl)cc(Cl)cc3n(Cc3ccccc3)c2=O)c1
98 | 110 to 117 | Cc1onc(NS(=O)(=O)c2ccccc2-c2ccc(-c3ncco3)cc2CN2CCC(C)(C)C2=O)c1C
